# Results: patent US20170368031A1, “SOLID DISPERSION FORMULATIONS OF ANTIVIRAL COMPOUNDS” (Merck Sharp & Dohme Corp., priority 2014, published 2017)
# How the values were obtained:
# [1] = Human clinical biocomparison study: oral absorption from grazoprevir and Formulation 3 with and without pH-raising medication; settings: in vivo, 100 mg grazoprevir/50 mg Compound I, healthy subjects
# Experimental: The Formulation 2 spray dried intermediate was blended and roller compacted along with microcrystalline cellulose, lactose, croscarmellose sodium, sodium chloride, colloidal silicon dioxide, and magnesium stearate. Only half of the magnesium stearate was added prior to roller compaction. The second half of the magnesium stearate and the remaining croscarmellose sodium was added after roller compaction and the resulting powder mix was blended further.
# The oral absorption obtained from grazoprevir and Formulation 3 with (Treatment 2) and without (Treatment 1) co-administration of a pH-raising medication was evaluated as part of human clinical study.
# [2] = Human clinical biocomparison study: oral absorption of Formulation 1 with and without pH-raising medication; settings: in vivo, 100 mg, healthy subjects
# Experimental: FIG. 1 outlines the process used to make Formulation 1.
# The oral absorption obtained from Formulation 1 with and without pH-modifying medications was evaluated as part of human clinical study. Formulation 1 was dosed by itself (Treatment 1) and in the presence of a medication that raises gastric pH (Treatment 2).
# [3] = Treatment 1: grazoprevir and Formulation 3 without pH-raising medication
# [4] = Treatment 1: Formulation 1 dosed by itself
compound,measurement,setting,value
"COC(=O)N[C@H](C(=O)N1CCC[C@H]1c1nc(-c2ccc3c(c2)O[C@@H](c2ccccc2)n2c-3cc3cc(-c4c[nH]c([C@@H]5CCCN5C(=O)[C@@H](NC(=O)OC)C(C)C)n4)ccc32)c[nH]1)C(C)C [Compound I, dimethyl N,N′-([(6S)-6-phenylindolo[1,2-c][1,3]benzoxazine-3,10-diyl]bis {1H-imidazole-5,2-diyl-(2S)-pyrrolidine-2,1-diyl[(2S)-3-methyl-l-oxobutane-1,2-diyl]})dicarbamate]",AUC(0-inf),[1]; [3],1.97 µM·h
same,Cmax,[1]; [3],102 nM
same,AUC(0-inf),[1]; Treatment 2: grazoprevir and Formulation 3 with pH-raising medication,1.79 µM·h
same,AUC(0-inf),[2]; [4],3.77 µM·h
same,Cmax,[2]; [4],216 nM
same,AUC(0-inf),[2]; Treatment 2: Formulation 1 with pH-raising medication,1.57 µM·h
